≈ marks a conversion by molar mass, not a printed value. Where two headings read alike, the source gives them in different places.
Test: Solubility (dissolved, centrifuged, HPLC peak integrated relative to a tyrosine standard)
Assay type: physicochemical
From the text: Pure three-mer scaffolds and five-mer scaffolds with extended rod-like structures in useful amounts have been synthesized. Three units of building block 1:pro4(2S4S) (Sequence 1) were assembled to form the molecular rod 19 using sequential solid phase synthesis on a 46 μmole scale (Scheme 4). The synthesis took place on an AM resin with a Rink Amide linker available from Novabiochem. […] After coupling three monomers, an Fmoc-Tyr(t-Bu)-OAt residue was coupled to increase the hydrophobicity of the final scaffold so that it would bind to a C18 column. After removal of the tyrosine Fmoc group, the amine terminus rapidly attacked the adjacent methyl ester to form a diketopiperazine […] (indicated in the sequence as cyclo-(Tyr)). The flexible oligomer 17 was cleaved from the resin and its mass was confirmed by reverse phase liquid chromatography with mass spectrometry (RP-LCMS). The carboxybenzyl (Cbz) groups were then removed by hydrogenolysis to obtain 18. The flexible oligomer 18 was converted into the rigidified scaffold 19 through the parallel formation of two diketopiperazine rings by exposure to 20% piperidine/DMF over 48 hours at 4° C.[25] […] Solubility was measured by dissolving the compound in 0.1% TFA, centrifuging it, injecting the solution into an HPLC and integrating the resulting peak relative to a tyrosine standard. […]

solubility (water, read-out: soluble in water) [µg/mL] | solubility (10% D2O/H2O, unpurified material, read-out: soluble in 10% D2O/H2O) [µg/mL] | Compound
> 5000 | – | NC(=O)[C@@H]1C[C@@]2(CN1)NC(=O)[C@@H]1C[C@@]3(CN1C2=O)NC(=O)[C@@H]1C[C@@]2(CN1C3=O)NC(=O)[C@H](Cc1ccc(O)cc1)NC2=O [scaffold 19]
– | 5000 (≈ 5.54 mM) | COC(=O)[C@]1(N)C[C@H]2C(=O)N[C@]3(C[C@H]4C(=O)N[C@]5(C[C@H]6C(=O)N[C@]7(C[C@H]8C(=O)N[C@@]9(CN[C@H](C(=O)N[C@@H](Cc%10ccc(O)cc%10)C(N)=O)C9)C(=O)N8C7)C(=O)N6C5)C(=O)N4C3)C(=O)N2C1 [scaffold 20]

— US20040077879A1, “Bis (amino acid) molecular scaffolds” (priority 2002, published 2004)
